Values of other authors, collected in patent publication US6762172B1, “Water-stabilized organosilane compounds and methods for using the same” (Nova Biogenetics, Inc., priority 1997, dated 2004).

Details: mixture with water, non-stabilized

SMILES: CCCCCCCCCCCCCCCCCC[N+](C)(C)CCC[Si](OC)(OC)OC.[Cl-] [3-(trimethoxysilyl)propyl-dimethyloctadecyl ammonium chloride]
- begins to lose effectiveness: four to eight
